Test results taken from US7109243B2 (IRM LLC, priority 2003, dated 2006).

Assays:
Cathepsin S = Cathepsin S (Homo sapiens, UniProt P25774); test: Cathepsin S inhibition assay (fluorogenic peptide substrate); assay type: biochemical; conditions: Table II, compounds of Formula I; read-out: Ki Cat. S
Method in brief: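 Ki values come from nonlinear fitting of inhibited hydrolysis rates, taking free and total inhibitor concentrations as equal. Rates measured as rising fluorescence at 380/450 nm after reaction start with 50 μM final acetyl-HPVK-aminocarbamoylcoumarin.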

Cathepsin K = biological target: T1, Cathepsin K (Homo sapiens, UniProt P43235); test: Cathepsin K inhibition assay (fluorogenic peptide substrate); selectivity ratio vs cathepsin S; assay type: biochemical; conditions: ratio of cathepsin K inhibition constant to cathepsin S inhibition constant; Table II
T1 sequence (P43235 115-329): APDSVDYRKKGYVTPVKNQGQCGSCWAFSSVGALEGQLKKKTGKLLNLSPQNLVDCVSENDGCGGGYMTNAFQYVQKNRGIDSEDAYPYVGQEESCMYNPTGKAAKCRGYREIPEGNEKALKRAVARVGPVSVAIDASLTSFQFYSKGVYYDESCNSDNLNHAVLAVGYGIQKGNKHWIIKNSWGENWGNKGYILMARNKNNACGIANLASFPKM
Method in brief: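 Fluorogenic kinetic assay, started with acetyl-Lys-His-Pro-Lys-aminocarbamoylcoumarin at 40 μM final, hydrolysis followed at ex 380/em 450 nm. Apparent inhibition constants from progress curves, converted to competitive inhibition constants. Selectivity expressed as isozyme inhibition constant divided by cathepsin S inhibition constant.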

Sequence of Cathepsin S (P25774 115-331, species assumed): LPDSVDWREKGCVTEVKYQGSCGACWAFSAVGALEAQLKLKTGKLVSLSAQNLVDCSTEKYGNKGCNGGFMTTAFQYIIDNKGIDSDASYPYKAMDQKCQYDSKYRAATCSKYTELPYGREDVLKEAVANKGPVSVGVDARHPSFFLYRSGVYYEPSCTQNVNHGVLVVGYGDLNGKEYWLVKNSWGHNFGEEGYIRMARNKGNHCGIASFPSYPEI

Row | SMILES | Ki (Cathepsin S) [µM] | Selectivity for Cat. S over Cat. K (Cathepsin K)
1 | COc1ccc(NCCNC(=O)[C@H](CCC2CCCCC2)NC(=O)c2cccc(C(F)(F)F)c2)cc1 [Compound 126, (S)-N-{3-Cyclohexyl-1-[2-(4-methoxy-phenylamino)-ethylcarbamoyl]-propyl}-3-trifluoromethyl-benzamide] | < 0.1 | +++ (+++, >1000)
2 | COc1ccc(NCCNC(=O)[C@H](CCC2CCCCC2)NC(=O)c2ccc(N3CCOCC3)cc2)cc1 [Compound 127, (S)-N-{3-Cyclohexyl-1-[2-(4-methoxy-phenylamino)-ethylcarbamoyl]-propyl}-4-morpholin-4-yl-benzamide] | < 1 | ++ (++, >100)
3 | COc1ccc(NCCNC(=O)[C@H](CCC2CCCCC2)NC(=O)[C@@H](C)c2ccccc2)cc1 [Compound 128] | < 0.1 | +++ (+++, >1000)
4 | COc1ccc(NCCNC(=O)[C@H](CCC2CCCCC2)NC(=O)c2ccc(OCc3ccccc3)cc2)cc1 [Compound 129, (S)-4-Benzyloxy-N-{3-cyclohexyl-1-[2-(4-methoxy-phenylamino)-ethylcarbamoyl]-propyl}-benzamide] | < 10 | + (+, >10)
5 | COc1ccc(NCCNC(=O)[C@H](CCC2CCCCC2)NC(=O)c2ccc(-c3ccccc3)cc2)cc1 [Compound 130, (S)-Biphenyl-4-carboxylic acid {3-cyclohexyl-1-[2-(4-methoxy-phenylamino)-ethylcarbamoyl]-propyl}-amide] | < 10 | + (+, >10)
6 | COc1ccc(NCCNC(=O)[C@H](CCC2CCCCC2)NC(=O)c2cc3cc(Cl)ccc3[nH]2)cc1 [Compound 131, (S)-5-Chloro-1H-indole-2-carboxylic acid {3-cyclohexyl-1-[2-(4-methoxy-phenylamino)-ethylcarbamoyl]-propyl}-amide] | < 10 | + (+, >10)
7 | COc1ccc(NCCNC(=O)[C@H](CCC2CCCCC2)NC(=O)c2cc3cc(F)ccc3[nH]2)cc1 [Compound 132, (S)-5-Fluoro-1H-indole-2-carboxylic acid {3-cyclohexyl-1-[2-(4-methoxy-phenylamino)-ethylcarbamoyl]-propyl}-amide] | < 1 | ++ (++, >100)
8 | COc1ccc(NCCNC(=O)[C@H](CCC2CCCCC2)NC(=O)c2sc(N)nc2C)cc1 [Compound 133, (S)-2-Amino-4-methyl-thiazole-5-carboxylic acid {3-cyclohexyl-1-[2-(4-methoxy-phenylamino)-ethylcarbamoyl]-propyl}-amide] | < 1 | ++ (++, >100)
9 | COc1ccc(NCCNC(=O)[C@H](CCC2CCCCC2)NC(=O)c2cc3cc(Cl)ccc3o2)cc1 [Compound 134, (S)-5-Chloro-benzofuran-2-carboxylic acid {3-cyclohexyl-1-[2-(4-methoxy-phenylamino)-ethylcarbamoyl]-propyl}-amide] | < 1 | ++ (++, >100)
10 | CC[C@@H](C(=O)N[C@@H](CC1CCCCC1)C(=O)NCCNc1ccc(OC(F)(F)F)cc1)c1ccccc1 [Compound 135, N-{2-cyclohexyl-1-(S)-[2-(4-trifluoromethoxy-phenylamino)-ethylcarbamoyl]-ethyl}-2-(R)-phenyl-butyramide] | < 0.1 | +++ (+++, >1000)

More lines, now with the values ahead:

Row | Ki (Cathepsin S) [µM] | Selectivity for Cat. S over Cat. K (Cathepsin K) | SMILES
11 | < 1 | ++ (++, >100) | COc1ccc(NCCNC(=O)[C@H](CCC2CCCCC2)NC(=O)c2ccc(-c3cccc(C(F)(F)F)c3)o2)cc1 [Compound 136, (S)-5-(3-Trifluoromethyl-phenyl)-furan-2-carboxylic acid {3-cyclohexyl-1-[2-(4-methoxy-phenylamino)-ethylcarbamoyl]-propyl}-amide]
12 | < 0.1 | +++ (+++, >1000) | COc1ccc(NCCNC(=O)[C@H](CCC2CCCCC2)NC(=O)c2ccc3ncsc3c2)cc1 [Compound 137, (S)-Benzothiazole-6-carboxylic acid {3-cyclohexyl-1-[2-(4-methoxy-phenylamino)-ethylcarbamoyl]-propyl}-amide]
13 | < 0.1 | +++ (+++, >1000) | COc1ccc(NCCNC(=O)[C@H](CCC2CCCCC2)NC(=O)c2cccc(OC(F)(F)F)c2)cc1 [Compound 138, (S)-N-{3-Cyclohexyl-1-[2-(4-methoxy-phenylamino)-ethylcarbamoyl]-propyl}-3-trifluoromethoxy-benzamide]
14 | < 0.1 | +++ (+++, >1000) | COc1ccc(NCCNC(=O)[C@H](CCC2CCCCC2)NC(=O)c2cccc(C#N)c2)cc1 [Compound 139, (S)-3-Cyano-N-{3-cyclohexyl-1-[2-(4-methoxy-phenylamino)-ethylcarbamoyl]-propyl}-benzamide]
15 | < 0.1 | +++ (+++, >1000) | COc1ccc(NCCNC(=O)[C@H](CCC2CCCCC2)NC(=O)c2ccc(C#N)cc2)cc1 [Compound 140, (S)-4-Cyano-N-{3-cyclohexyl-1-[2-(4-methoxy-phenylamino)-ethylcarbamoyl]-propyl}-benzamide]
16 | < 0.1 | + (+, >10) | O=C(N[C@@H](CC1CCCCC1)C(=O)NCCNc1ccc(OC(F)(F)F)cc1)c1ccc(Oc2ccccc2)cc1 [Compound 141, N-{2-cyclohexyl-1-(S)-[2-(4-trifluoromethoxy-phenylamino)-ethylcarbamoyl]-ethyl}-4-phenoxy-benzamide]
17 | < 0.1 | +++ (+++, >1000) | COc1ccc(NCCNC(=O)[C@H](CCC2CCCCC2)NC(=O)c2cccc(-c3csc(C)n3)c2)cc1 [Compound 142, (S)-N-{3-Cyclohexyl-1-[2-(4-methoxy-phenylamino)-ethylcarbamoyl]-propyl}-3-(2-methyl-thiazol-4-yl)-benzamide]
18 | < 1 | ++ (++, >100) | COc1ccc(NCCNC(=O)[C@H](CCC2CCCCC2)NC(=O)c2ccc(-n3cncn3)cc2)cc1 [Compound 143, (S)-N-{3-Cyclohexyl-1-[2-(4-methoxy-phenylamino)-ethylcarbamoyl]-propyl}-4-[1,2,4]triazol-1-yl-benzamide]
19 | < 1 | +++ (+++, >1000) | COc1ccc(NCCNC(=O)[C@H](CCC2CCCCC2)NC(=O)c2cccc(-c3ccccc3)c2)cc1 [Compound 144, (S)-Biphenyl-3-carboxylic acid {3-cyclohexyl-1-[2-(4-methoxy-phenylamino)-ethylcarbamoyl]-propyl}-amide]
20 | < 0.1 | +++ (+++, >1000) | COc1ccc(NCCNC(=O)[C@H](CC2CCCCC2)NC(=O)c2ccccc2F)cc1 [Compound 145, (S)-N-{2-Cyclohexyl-1-[2-(4-methoxy-phenylamino)-ethylcarbamoyl]-ethyl}-2-fluoro-benzamide]
21 | < 0.1 | +++ (+++, >1000) | COc1ccc(NCCNC(=O)[C@H](CC2CCCCC2)NC(=O)c2ccc(F)c(F)c2)cc1 [Compound 146, (S)-N-{2-Cyclohexyl-1-[2-(4-methoxy-phenylamino)-ethylcarbamoyl]-ethyl}-3,4-difluoro-benzamide]
